Measured values from patent publication US10201558B2, “Compositions of selenoorganic compounds and methods of use thereof” (Alltech, Inc., priority 2014, dated 2019).
“Also recorded” adds a separate entry of the source.

Columns and labels:
[1] = system: phosphorylated FOXO3 in AML-12 cells; assay: Phosphorylated FOXO in AML-12 liver cells; assay type: cell-based, mouse; conditions: 150 ppb, 6 hours and 24 hours
Experimental: Expression of phosphorylated FOXO1/3/4 in a non-neuronal mouse AML-12 liver cell line was examined Tests were performed at the same time and under the same experimental conditions as the human IMR-32 cells.

MAPK13 = assay: QRT-PCR of MAPK13 mRNA in control and FOXO4 KD IMR-32 cells; assay type: cell-based, human; conditions: 24 hours
Experimental: IMR-32 cells were cultured on 12-well plates for 24 hours and then incubated with FOXO4 siRNA lentiviruses (SC-29650V, Santa Cruz) or control siRNA lentiviruses (sc-108080, Santa Cruz) in the presence of Polybrene (5 μg/ml, Santa Cruz) for 24 hours according to the manufacturer's protocol. These lentiviral siRNA-transfected cells were amplified in normal media for 3 days and then incubated with puromycin for 9-14 days to obtain the stable Control KD (stably transfected with the control siRNAs) and FOXO4KD (stably transfected with Foxo4 siRNAs) cells. These control and Foxo4 KD cells were subjected to cell survival, mitochondrial potential and RNA analysis.
Human IMR-32 cells were seeded on gelatinized 6-well (6.5×10^5 cells/well) or 24-well (1.3×10^5 cells/well) plates. Cells were treated with control (0 ppb) or various compounds for 6 hours or 24 hours. Total RNA from these cells was isolated using Trizol (Invitrogen) according to the manufacturer's protocol, and then incubated with DNase I to remove any potential contaminated genomic DNA. Then RNA samples were subjected to real-time PCR analysis using the Applied-Bioscience's RT kit and predesigned Taqman probes (Invitrogen), as described previously (Lan et al EMBO J 2003). The mRNA levels of UCP1, UCP2, UCP3, SLC25A27 (UCP4), SLC25A14 (UCP5), PSEN1, Nicastrin, GSK3B, MAPK11-14, PPARG, APOE, RCAN1, RCAN1.1, G6PC, INSR, IGF1R and FOXO4 were measured. Three to six samples were analyzed in each treatment group. Data were normalized by Actin B (ACTB) or Glyceraldehyde Phosphate Dehydrogenase (GAPDH) mRNA levels in each sample and are presented as mean±SEM of 3-6 samples.
Normal control cells and FOXO4KD cells were incubated with two doses of Compound C for 24 hours, and subjected to QRT-PCR analysis of the MAPK11-14 genes. The relative mRNA expression of all four MAPK genes in normal control IMR-32 cells was assessed. […] Data in Compound C-treated control and FOXO4 KD cells were normalized by their levels in control and FOXO4KD cells, respectively. Mean±SEM of indicated number of samples in the bar graphs. […]

[2] = system: NOTCH signaling molecules in IMR-32 cells; assay: QRT-PCR of key NOTCH signaling molecules in IMR-32 cells; assay type: cell-based, human; conditions: 150 ppb; for HER2 mRNA expression (mean ± sem) / HES1 mRNA expression (mean ± sem) / HEY1 mRNA expression (mean ± sem) / NFKB1 mRNA expression (mean ± sem) / NFKB2 mRNA expression (mean ± sem) / NOTCH 1 mRNA expression (mean ± sem) / NOTCH 2 mRNA expression (mean ± sem) / NOTCH 3 mRNA expression (mean ± sem) / RBPJ mRNA expression (mean ± sem): control 100
Experimental: QRT-PCR analysis of several Notch signaling molecules was performed in IMR-32 cells to test if Compound C is toxic to the Notch signaling in vitro. In brief, IMR-32 cells were treated with a water control and 150 ppb Compound C in 10% FBS containing MEM media for 6 hours, 24 hours, and 48 hours. These molecules were selected based on the IPA GO search.

[3] = system: phosphorylated Foxo4 (threonine 28); assay: Western blot of phosphorylated Foxo4 in APP/PS1 mouse brains; assay type: in vivo; conditions: APP/PS1 mouse brain, Compound C diet vs control diet
Experimental: Male APPΔNLh/ΔNLh×PS1P246 L/246 L knock-in model mice of Alzheimer's disease (abbreviated APP/PS1) were genotyped using standard primers for human APP (Amyloid Precursor Protein) and human PS1 (PSEN1).
At 12 months of age, the mice were euthanized and the brains quickly removed, the cerebellum isolated and the hemispheres snap-frozen in liquid nitrogen and then stored at −80° C. for further immunohistochemistry (IHC), protein and RNA analysis. All procedures conducted on these animal studies were pre-approved by the University of Kentucky IACUC committee.
Frozen hemispheres of control- and Compound C-treated APP/PS1 mice were weighed and homogenized in PBS buffer, and then subsequently extracted with RIPA buffer (Sigma) containing complete proteinase and phosphatase inhibitors (Fisher Scientific). Protein levels in the samples were determined by micro-BCA protein analysis according to the manufacturer's protocol. […] Positive signals on the membrane blots were detected using Amersham's enhanced chemiluminescence Western Blotting Prime Detection reagents (GE healthcare Lifescience, Pittsburgh, Pa.). Images of these luminescence signals on the membrane blots were captured using the LI-COR Odyssey Fc Image system (Lincoln, Nebr.). […]

## C[Se]C[C@H]1O[C@@H](n2cnc3c(N)ncnc32)C(O)C1O (stereo in doubt) [Compound C, 5′-deoxy-5′-methylselenoadenosine]
[1]
  phosphorylation of FOXO3: did not affect
MAPK13; FOXO4KD cells, 75 ppb and 150 ppb
  MAPK13 mRNA levels: none of the mRNA levels of the four MAPK genes in FOXO4KD cells were significantly altered
MAPK13; control KD cells, 75 ppb
  MAPK13 mRNA levels: trend towards decreased
MAPK13; control KD cells, 150 ppb
  MAPK13 mRNA levels: significantly decreased
[2]; 6 hours treatment (cell spans control and #C)
  NOTCH 4 mRNA expression: Undetected
[2]; 6 hours treatment
  HER2 mRNA expression (mean ± sem): 96 ± 4 (4)
  HES1 mRNA expression (mean ± sem): 101 ± 6 (4)
  HEY1 mRNA expression (mean ± sem): 120 ± 9 (4)
  NFKB1 mRNA expression (mean ± sem): 112 ± 7 (4)
  NFKB2 mRNA expression (mean ± sem): 103 ± 7 (4)
  NOTCH 1 mRNA expression (mean ± sem): 94 ± 7 (4)
  NOTCH 2 mRNA expression (mean ± sem): 95 ± 16 (4)
  NOTCH 3 mRNA expression (mean ± sem): 95 ± 7 (4)
  RBPJ mRNA expression (mean ± sem): trend of increased expression
[2]; 6 hours treatment, listed as #C
  RBPJ mRNA expression (mean ± sem): 144 ± 12 (4)
[2]; 6 hours, 24 hours and 48 hours
  expression of all tested Notch signaling genes: did not significantly inhibit
[2]; 24 hours treatment (cell spans control and #C)
  NOTCH 4 mRNA expression: Undetected
[2]; 24 hours treatment
  HER2 mRNA expression (mean ± sem): 100 ± 11
  HES1 mRNA expression (mean ± sem): 102 ± 18
  HEY1 mRNA expression (mean ± sem): 121 ± 10
  NFKB1 mRNA expression (mean ± sem): 106 ± 11
  NFKB2 mRNA expression (mean ± sem): 85 ± 28 (3)
  NOTCH 1 mRNA expression (mean ± sem): 89 ± 10 (3)
  NOTCH 2 mRNA expression (mean ± sem): 103 ± 27
  NOTCH 3 mRNA expression (mean ± sem): 105 ± 14
  RBPJ mRNA expression (mean ± sem): 119 ± 37
[2]; 48 hours treatment
  HER2 mRNA expression (mean ± sem): 106 ± 23
  HES1 mRNA expression (mean ± sem): 115 ± 9 (4)
  HEY1 mRNA expression (mean ± sem): 115 ± 11
  NFKB1 mRNA expression (mean ± sem): 109 ± 12
  NFKB2 mRNA expression (mean ± sem): 97 ± 14 (4)
  NOTCH 1 mRNA expression (mean ± sem): 90 ± 9 (3)
  NOTCH 2 mRNA expression (mean ± sem): 94 ± 40 (3)
  NOTCH 3 mRNA expression (mean ± sem): 81 ± 23 (4)
  RBPJ mRNA expression (mean ± sem): 97 ± 7 (4)
[3]
  phosphorylated Foxo4 at threonine 28 (pFoxo4) protein: inhibition; also recorded: less abundant; also recorded: significantly decreased
